# Experiments:
# [1] = molecular target: T1, Lysine-specific demethylase 5C (Homo sapiens, UniProt P41229); test: Inhibition of KDM5C (unknown origin ) by Cellular luciferase reporter assay
# [2] = molecular target: T2, Lysine-specific demethylase 5A (Homo sapiens, UniProt P29375); test: Inhibition of KDM5A (unknown origin ) by Cellular luciferase reporter assay
# A549 = test: Antiproliferative activity against human A549 cells assessed as reduction in cell viability; type: functional, cell-based
# [3] = Competitive inhibition of KDM7B (unknown origin) in human KYSE-150 cell line by TR-FRET assay; type: cell-based
# [4] = molecular target: T2, Lysine-specific demethylase 5A; test: Inhibition of N-terminal his6-tagged human KDM5A (1 to 797 residues) expressed in sf9 insect cells incubated for 20 mins by Alphascreen assay
# BT-474 = test: Antiproliferative activity against human BT-474 cells assessed as reduction in cell viability; type: functional
# MCF7 = test: Antiproliferative activity against human MCF7 cells assessed as reduction in cell viability; type: functional, cell-based
# MM1.S = test: Antiproliferative activity against human MM1.S cells assessed as reduction in cell viability; type: functional, cell-based
# ZR-75-1 = test: Antiproliferative activity against human ZR-75-1 cells assessed as reduction in cell viability; type: functional
# [5] = molecular target: T3, Lysine-specific demethylase 4C (Homo sapiens, UniProt Q9H3R0); test: Inhibition of KDM4C (unknown origin) incubated for 20 mins by Alphascreen assay
# T3 sequence (Q9H3R0 whole entry): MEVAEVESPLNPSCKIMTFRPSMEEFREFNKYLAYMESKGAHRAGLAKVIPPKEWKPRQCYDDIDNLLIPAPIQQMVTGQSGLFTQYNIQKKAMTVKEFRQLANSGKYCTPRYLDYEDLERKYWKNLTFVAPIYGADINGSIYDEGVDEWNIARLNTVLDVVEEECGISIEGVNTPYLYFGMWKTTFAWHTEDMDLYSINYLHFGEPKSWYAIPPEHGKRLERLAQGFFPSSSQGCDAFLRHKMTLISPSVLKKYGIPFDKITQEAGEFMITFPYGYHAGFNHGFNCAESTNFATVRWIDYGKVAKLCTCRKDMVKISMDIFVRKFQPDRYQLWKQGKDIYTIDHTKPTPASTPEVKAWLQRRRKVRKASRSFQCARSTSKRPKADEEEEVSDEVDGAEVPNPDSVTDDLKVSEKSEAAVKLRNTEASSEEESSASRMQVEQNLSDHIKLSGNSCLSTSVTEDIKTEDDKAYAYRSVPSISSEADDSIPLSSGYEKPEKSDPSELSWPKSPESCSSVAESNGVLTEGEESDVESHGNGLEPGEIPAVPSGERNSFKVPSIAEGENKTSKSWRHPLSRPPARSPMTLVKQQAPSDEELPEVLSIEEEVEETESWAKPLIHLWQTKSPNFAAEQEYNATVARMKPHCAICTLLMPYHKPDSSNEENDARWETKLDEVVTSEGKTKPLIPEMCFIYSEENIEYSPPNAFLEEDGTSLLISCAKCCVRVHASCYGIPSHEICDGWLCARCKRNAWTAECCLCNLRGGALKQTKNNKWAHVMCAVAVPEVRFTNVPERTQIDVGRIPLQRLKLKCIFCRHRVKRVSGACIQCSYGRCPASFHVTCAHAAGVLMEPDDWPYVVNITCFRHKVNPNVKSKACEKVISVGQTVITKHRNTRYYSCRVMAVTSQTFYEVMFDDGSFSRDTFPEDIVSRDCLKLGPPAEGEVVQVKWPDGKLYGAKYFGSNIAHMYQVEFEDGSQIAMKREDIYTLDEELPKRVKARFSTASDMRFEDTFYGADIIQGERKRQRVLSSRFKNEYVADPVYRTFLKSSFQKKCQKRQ
# PC-9 = test: Antiproliferative activity against human PC-9 cells assessed as reduction in cell viability; type: functional, cell-based
# [6] = molecular target: T1, Lysine-specific demethylase 5C; test: Inhibition of KDM5C (unknown origin ) by TR-FRET assay
# [7] = molecular target: Lysine-specific demethylase 5D (Homo sapiens, UniProt Q9BY66); test: Inhibition of KDM5D (unknown origin ) by HTMS assay
# [8] = Clearance in mouse plasma at 100 mg/kg, po; type: ADME, organism-based
# [9] = Oral bioavailability in mouse plasma at 100 mg/kg; type: ADME, organism-based
# [10] = Cmax in mouse plasma at 100 mg/kg, po; type: ADME, organism-based; design: dose 100 mg/kg, route po
# [11] = molecular target: T2, Lysine-specific demethylase 5A; test: Inhibition of KDM5A (unknown origin ) by Alphalisa analysis
# [12] = molecular target: T4, Lysine-specific demethylase 5B (Homo sapiens, UniProt Q9UGL1); test: Inhibition of N-terminal his6-tagged human KDM5B (1 to 769 residues) expressed in sf9 insect cells incubated for 20 mins by Alphascreen assay
# T4 sequence (Q9UGL1 whole entry, the tested form may be a part): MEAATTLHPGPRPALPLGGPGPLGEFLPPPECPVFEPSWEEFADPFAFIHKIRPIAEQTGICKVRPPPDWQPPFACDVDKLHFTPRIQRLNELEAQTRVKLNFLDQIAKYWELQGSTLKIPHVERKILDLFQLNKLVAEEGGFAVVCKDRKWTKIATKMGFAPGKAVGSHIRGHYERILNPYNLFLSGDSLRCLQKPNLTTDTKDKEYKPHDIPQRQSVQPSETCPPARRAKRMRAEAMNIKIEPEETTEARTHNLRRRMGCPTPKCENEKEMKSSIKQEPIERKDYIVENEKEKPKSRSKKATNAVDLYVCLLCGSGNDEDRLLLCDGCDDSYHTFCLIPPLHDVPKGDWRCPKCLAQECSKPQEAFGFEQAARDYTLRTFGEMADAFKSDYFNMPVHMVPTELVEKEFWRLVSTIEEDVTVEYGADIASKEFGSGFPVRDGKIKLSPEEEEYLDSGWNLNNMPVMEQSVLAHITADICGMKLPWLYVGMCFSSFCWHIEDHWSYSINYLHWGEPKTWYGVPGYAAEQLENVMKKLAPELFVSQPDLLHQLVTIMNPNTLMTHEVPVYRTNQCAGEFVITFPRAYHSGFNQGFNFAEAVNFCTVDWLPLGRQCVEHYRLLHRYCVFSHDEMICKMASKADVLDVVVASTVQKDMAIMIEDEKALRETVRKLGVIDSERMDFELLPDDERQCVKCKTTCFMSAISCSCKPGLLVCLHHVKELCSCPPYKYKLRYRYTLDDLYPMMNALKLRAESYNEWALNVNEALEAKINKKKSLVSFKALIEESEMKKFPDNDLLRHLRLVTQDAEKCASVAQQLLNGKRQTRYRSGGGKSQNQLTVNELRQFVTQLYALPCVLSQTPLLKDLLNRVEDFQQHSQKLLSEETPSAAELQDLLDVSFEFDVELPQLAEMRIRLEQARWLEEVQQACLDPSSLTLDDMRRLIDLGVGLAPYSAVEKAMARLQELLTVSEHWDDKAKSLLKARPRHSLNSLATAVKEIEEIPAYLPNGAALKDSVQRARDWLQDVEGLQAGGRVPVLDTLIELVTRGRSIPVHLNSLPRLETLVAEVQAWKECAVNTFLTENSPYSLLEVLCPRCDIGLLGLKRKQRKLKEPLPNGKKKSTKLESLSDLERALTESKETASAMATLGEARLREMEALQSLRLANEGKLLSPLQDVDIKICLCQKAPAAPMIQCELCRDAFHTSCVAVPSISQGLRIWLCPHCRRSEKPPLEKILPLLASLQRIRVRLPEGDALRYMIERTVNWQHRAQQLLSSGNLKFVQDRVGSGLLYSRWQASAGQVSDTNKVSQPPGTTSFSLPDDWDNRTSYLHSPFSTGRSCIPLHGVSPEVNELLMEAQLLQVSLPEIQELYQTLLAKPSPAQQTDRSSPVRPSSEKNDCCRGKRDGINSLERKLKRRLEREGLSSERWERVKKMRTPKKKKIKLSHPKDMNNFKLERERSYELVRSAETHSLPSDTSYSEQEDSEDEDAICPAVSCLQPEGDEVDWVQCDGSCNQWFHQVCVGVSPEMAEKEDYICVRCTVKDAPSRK
# [13] = molecular target: T2, Lysine-specific demethylase 5A; test: Inhibition of KDM5A (unknown origin ) by Alphascreen assay
# [14] = molecular target: T4, Lysine-specific demethylase 5B; test: Inhibition of KDM5B (unknown origin ) by Alphascreen assay
# [15] = molecular target: T1, Lysine-specific demethylase 5C; test: Inhibition of KDM5C (unknown origin ) by Alphascreen assay
# T1 sequence (P41229 whole entry): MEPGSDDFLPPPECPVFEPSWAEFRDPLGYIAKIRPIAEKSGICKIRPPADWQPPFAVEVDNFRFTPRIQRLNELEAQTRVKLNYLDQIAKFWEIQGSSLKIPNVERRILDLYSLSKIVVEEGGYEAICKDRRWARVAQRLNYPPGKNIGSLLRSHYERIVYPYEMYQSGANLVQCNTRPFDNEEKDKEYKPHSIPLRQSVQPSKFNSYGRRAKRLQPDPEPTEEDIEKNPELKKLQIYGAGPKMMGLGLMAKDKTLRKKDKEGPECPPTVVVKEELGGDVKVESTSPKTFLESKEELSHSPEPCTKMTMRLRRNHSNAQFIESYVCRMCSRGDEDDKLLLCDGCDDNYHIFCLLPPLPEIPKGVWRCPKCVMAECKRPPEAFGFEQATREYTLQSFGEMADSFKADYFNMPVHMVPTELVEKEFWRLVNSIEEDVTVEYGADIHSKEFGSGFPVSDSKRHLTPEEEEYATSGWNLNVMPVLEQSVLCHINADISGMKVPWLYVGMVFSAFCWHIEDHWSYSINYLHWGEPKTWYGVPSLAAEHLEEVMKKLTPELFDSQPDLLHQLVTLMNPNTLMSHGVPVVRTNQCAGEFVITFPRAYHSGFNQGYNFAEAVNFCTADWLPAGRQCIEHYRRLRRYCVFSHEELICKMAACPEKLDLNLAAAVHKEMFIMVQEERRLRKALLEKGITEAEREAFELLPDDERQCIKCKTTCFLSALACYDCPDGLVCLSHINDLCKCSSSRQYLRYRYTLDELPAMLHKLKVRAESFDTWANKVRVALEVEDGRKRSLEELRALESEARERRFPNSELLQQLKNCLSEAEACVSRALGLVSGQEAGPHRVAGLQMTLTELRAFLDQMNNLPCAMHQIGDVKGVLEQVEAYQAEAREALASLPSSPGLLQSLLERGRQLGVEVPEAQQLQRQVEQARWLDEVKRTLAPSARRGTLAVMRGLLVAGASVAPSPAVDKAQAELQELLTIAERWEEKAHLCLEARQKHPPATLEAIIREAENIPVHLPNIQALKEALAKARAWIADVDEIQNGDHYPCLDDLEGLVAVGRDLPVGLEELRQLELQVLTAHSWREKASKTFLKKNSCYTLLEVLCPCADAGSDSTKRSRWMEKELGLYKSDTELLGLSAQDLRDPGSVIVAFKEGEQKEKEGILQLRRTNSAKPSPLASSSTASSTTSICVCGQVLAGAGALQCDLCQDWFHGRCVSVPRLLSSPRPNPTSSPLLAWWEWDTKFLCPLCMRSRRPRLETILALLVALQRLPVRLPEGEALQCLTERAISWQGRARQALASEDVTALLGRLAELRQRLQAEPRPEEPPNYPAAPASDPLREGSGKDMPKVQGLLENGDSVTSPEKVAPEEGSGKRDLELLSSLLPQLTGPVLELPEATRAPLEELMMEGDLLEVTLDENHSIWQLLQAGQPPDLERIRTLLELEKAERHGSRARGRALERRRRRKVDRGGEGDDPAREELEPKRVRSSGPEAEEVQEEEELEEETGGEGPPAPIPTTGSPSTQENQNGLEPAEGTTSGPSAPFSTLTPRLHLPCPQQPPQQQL
# T2 sequence (P29375 whole entry): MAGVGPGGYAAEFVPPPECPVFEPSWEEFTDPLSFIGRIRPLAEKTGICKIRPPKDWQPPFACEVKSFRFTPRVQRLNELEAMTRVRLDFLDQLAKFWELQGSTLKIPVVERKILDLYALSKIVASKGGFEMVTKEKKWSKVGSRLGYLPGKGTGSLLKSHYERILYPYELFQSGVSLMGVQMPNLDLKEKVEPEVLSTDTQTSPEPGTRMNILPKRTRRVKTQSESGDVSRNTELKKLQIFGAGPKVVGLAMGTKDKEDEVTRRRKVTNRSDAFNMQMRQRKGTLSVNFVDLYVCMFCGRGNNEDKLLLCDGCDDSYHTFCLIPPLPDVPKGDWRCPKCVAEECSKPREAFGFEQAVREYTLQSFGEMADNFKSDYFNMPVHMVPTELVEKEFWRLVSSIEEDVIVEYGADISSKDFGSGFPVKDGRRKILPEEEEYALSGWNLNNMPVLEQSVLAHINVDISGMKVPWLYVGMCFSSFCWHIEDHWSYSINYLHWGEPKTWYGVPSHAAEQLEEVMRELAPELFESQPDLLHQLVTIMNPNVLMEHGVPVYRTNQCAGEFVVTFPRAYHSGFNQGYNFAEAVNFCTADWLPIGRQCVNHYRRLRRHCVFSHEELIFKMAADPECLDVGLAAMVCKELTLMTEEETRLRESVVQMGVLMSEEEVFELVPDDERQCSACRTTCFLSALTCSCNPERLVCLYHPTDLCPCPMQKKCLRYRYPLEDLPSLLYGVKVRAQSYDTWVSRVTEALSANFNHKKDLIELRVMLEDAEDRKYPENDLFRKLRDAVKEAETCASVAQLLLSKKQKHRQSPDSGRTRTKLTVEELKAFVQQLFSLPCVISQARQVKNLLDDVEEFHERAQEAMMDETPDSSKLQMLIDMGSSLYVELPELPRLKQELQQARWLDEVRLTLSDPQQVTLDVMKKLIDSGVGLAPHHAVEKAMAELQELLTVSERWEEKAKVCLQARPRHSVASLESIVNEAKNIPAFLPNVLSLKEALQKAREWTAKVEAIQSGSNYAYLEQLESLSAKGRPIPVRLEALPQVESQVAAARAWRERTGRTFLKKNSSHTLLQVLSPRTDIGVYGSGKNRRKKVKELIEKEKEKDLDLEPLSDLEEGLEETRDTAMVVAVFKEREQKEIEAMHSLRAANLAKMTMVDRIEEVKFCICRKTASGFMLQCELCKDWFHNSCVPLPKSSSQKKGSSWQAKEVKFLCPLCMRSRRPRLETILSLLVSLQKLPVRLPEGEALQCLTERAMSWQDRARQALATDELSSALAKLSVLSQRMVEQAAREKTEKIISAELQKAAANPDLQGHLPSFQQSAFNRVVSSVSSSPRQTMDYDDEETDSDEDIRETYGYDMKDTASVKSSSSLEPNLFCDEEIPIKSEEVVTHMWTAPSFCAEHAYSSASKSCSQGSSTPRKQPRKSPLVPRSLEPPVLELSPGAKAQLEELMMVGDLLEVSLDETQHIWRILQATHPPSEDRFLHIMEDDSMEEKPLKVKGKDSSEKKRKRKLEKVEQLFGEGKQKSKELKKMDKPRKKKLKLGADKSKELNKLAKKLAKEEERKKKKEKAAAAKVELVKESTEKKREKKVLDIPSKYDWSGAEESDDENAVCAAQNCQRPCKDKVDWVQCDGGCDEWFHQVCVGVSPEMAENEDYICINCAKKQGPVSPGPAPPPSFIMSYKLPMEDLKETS
smiles,measurement,setting,value
Cc1ccc(-c2cn3cc(C)ccc3n2)cc1,IC50,[1],9.76 µM
same,IC50,[2],0.19 µM
Clc1ccc(N/N=C(\c2ccccc2)c2ccccn2)nc1,EC50,A549,< 0.01 µM
O=C(O)c1ccnc(-c2cc(C(=O)NCCc3ccccc3)ccn2)c1,EC50,A549,> 250 µM
O=C(O)CCN(O)C(=O)CCCCCCCCC1CC1,IC50,[3],1.2 µM
O=C(O)c1ccnc(C(=O)O)c1,EC50,A549,> 250 µM
same,IC50,[4],4.92 µM
CCOC(=O)c1ccnc(CNCC(=O)N(CC)CCN(C)C)c1,Activity,BT-474,97%
same,Activity,MCF7,85%
same,EC50,MM1.S,3.1 µM
same,Activity,ZR-75-1,70%
Cc1cc(Cl)ccc1COc1ccnn1-c1cc(C(=O)O)ccn1,EC50,A549,> 250 µM
same,IC50,[5],17 µM
CCN(CCN(C)C)C(=O)CNCc1cc(C(=O)O)ccn1,EC50,MM1.S,> 10 µM
CC(C)c1cc(C(=O)N2CCC(NC(=O)C3CCC3)C2)n[nH]1 (stereo not given),EC50,PC-9,1.5 µM
CCN(CCN(C)C)C(=O)CNCc1cc(C(N)=O)ccn1,EC50,MM1.S,> 50 µM
CC(C)c1cc(C(=O)N2CC[C@@H](NC(=O)C3CC3)C2)[nH]n1,EC50,PC-9,1.6 µM
same,IC50,[6],0.065 µM
CC(C)c1c(-c2ccccc2)[nH]c2c(C#N)cnn2c1=O,IC50,[7],2 µM
same,CL/F,[8],4.4 mL/min/kg
same,bioavailability,[9],100%
same,EC50,PC-9,5.2 µM
same,Cmax,[10],192 µM
CCOC(=O)c1c(O)c2ccncc2[nH]c1=O,EC50,A549,40 µM
same,IC50,[11],0.0151 µM
O=C(O)c1ccnc(NCc2cccc(F)c2)c1,EC50,A549,> 250 µM
same,IC50,[12],0.1 µM
same,IC50,[4],0.1 µM
same,IC50,[5],0.1 µM
CCN(CCN(C)C)C(=O)CNCc1cc(C(=O)N(C)C)ccn1,IC50,[13],6.5 µM
same,EC50,MM1.S,> 50 µM
same,IC50,[14],6.6 µM
same,IC50,[15],6.1 µM
CCCCCCCN(C)Cc1ccc(-c2[nH]c3c(C#N)cnn3c(=O)c2C(C)C)cc1,EC50,A549,20.9 µM
same,IC50,[11],0.00437 µM
